Source: patent publication US11083735B2, “Methods for treating sleep disorders, sleep disturbances, and related symptoms using aminosterol compositions” (Enterin, Inc., priority 2017, dated 2021)

Experiments:
[1] = Pharmacokinetics of orally administered squalamine (ENT-01) in Stage 1; type: in vivo, human; conditions: for AUC0-8 hr / AUC0-16 hr / Tmax (Median Value) / Cmax: Stage 1, oral; for Cmax: squalamine ion, mean
Method: Pharmakokinetics: PK data were collected on the 10 patients enrolled in Stage 1 and 10 patients enrolled in Stage 2 to determine the extent of systemic absorption. In Stage 1, PK data were obtained at each visit, pre-medication, at 1, 2, 4, 8 and 24 hours (Table 14). In Stage 2, PK was measured on days 1 and 6 of the randomization period pre-medication, at 1, 2, 4 and 8 hours (Table 15). […] Hao et al. 2003). The mean Cmax, Tmax and T1/2 and AUC of the squalamine ion following squalamine (ENT-01) oral dosing for Stage 1 patients. […] The mean Cmax, Tmax and T1/2 and AUC of the squalamine ion following squalamine (ENT-01) oral dosing for Stage 2 patients. The PK analyses are only approximate, as the lower limit of the validated concentration range was 0.5 ng/ml.

[2] = system: patients with PD and constipation; assay: Phase 2 trial Stage 2 (daily dosing): bowel function, stool related indices; type: in vivo, human; conditions: for response rate: Stage 2 daily dosing
Source text: (2) Rome-IV Criteria for Constipation (7 criteria, with constipation diagnosis requiring two or more of the following: (i) straining during at least 25% of defecations, (ii) lumpy or hard stools in at least 25% of defecations, (iii) sensation of incomplete evacuation for at least 25% of defecations, (iv) sensation of anorectal obstruction/blockage for at least 25% of defecations; (v) manual maneuvers to facilitate at least 25% of defecations; (vi) fewer than 3 defecations per week; and (vii) loose stools are rarely present without the use of laxatives;
(3) Constipation—Ease of Evacuation Scale (from 1-7, with 7=incontinent, 4=normal, and 1=manual disimpaction);
(4) Bristol Stool Chart, which is a patient-friendly means of categorizing stool characteristics (assessment of stool consistency is a validated surrogate of intestinal motility) and Stool Diary;
(14) Patient Assessment of Constipation Symptoms (PAC-SYM);
(15) Patient Assessment of Constipation Quality of Life (PAC-QOL);
In Stage 2, 34 patients were evaluated.
The primary efficacy outcome variable was whether or not a subject was a “success” or “failure”. This is an endpoint based on subject diary entries for the “fixed dose” period prior to the endpoint assessment defined as average complete stool frequency increase by 1 or more over baseline, or 3 or more complete spontaneous stools/week. The subject was deemed a “success” if s/he met one or more of the criteria listed above, otherwise the subject was deemed a “failure”. The primary analysis was based on all subjects with a baseline assessment and an assessment at the end of the “fixed-dose” period and was a comparison of the proportion of successes with 0.10 (the null hypothesis corresponding to no treatment effect).
The proportion of subjects for whom the drug was a success was estimated with a binomial point estimate and corresponding 95% confidence interval. A secondary analysis compared the proportions of subjects who are deemed a success at the end of the randomized fixed-dose period between those randomized to the squalamine (ENT-01) arm and those randomized to the placebo arm. A Fisher's exact test was used to compare the proportions of subjects who were deemed a success at the end of randomization period between the two randomized arms.

Structure (SMILES): CC(C)[C@@H](CC[C@@H](C)[C@H]1CC[C@H]2[C@@H]3[C@H](O)C[C@H]4C[C@@H](NCCCNCCCCN)CC[C@]4(C)[C@H]3CC[C@]12C)OS(=O)(=O)O (single isomer, unassigned; ent-01) [ENT-01]
- approximate oral bioavailability ([1]; Stage 1, oral dosing up to 200 mg (114 mg/m^2), compared with prior phase 1 IV pharmacokinetic data): about 0.1%
- AUC0-8 hr ([1]; dose 25 mg): 10.8 ng·h/mL
- AUC0-16 hr ([1]; dose 25 mg): 19.6 ng·h/mL
- Tmax (Median Value) ([1]; dose 25 mg): 1.0 h
- Cmax ([1]; dose 25 mg): 2.84 ng/mL
- AUC0-8 hr ([1]; dose 50 mg): 18.5 ng·h/mL
- AUC0-16 hr ([1]; dose 50 mg): 33.1 ng·h/mL
- Tmax (Median Value) ([1]; dose 50 mg): 2.0 h
- Cmax ([1]; dose 50 mg): 3.73 ng/mL
- AUC0-8 hr ([1]; dose 75 mg): 18.4 ng·h/mL
- AUC0-16 hr ([1]; dose 75 mg): 29.8 ng·h/mL
- Tmax (Median Value) ([1]; dose 75 mg): 2.0 h
- Cmax ([1]; dose 75 mg): 4.33 ng/mL
- AUC0-8 hr ([1]; dose 100 mg): 29.6 ng·h/mL
- AUC0-16 hr ([1]; dose 100 mg): 51.5 ng·h/mL
- Tmax (Median Value) ([1]; dose 100 mg): 2.0 h
- Cmax ([1]; dose 100 mg): 6.18 ng/mL
- AUC0-8 hr ([1]; dose 125 mg): 43.1 ng·h/mL
- AUC0-16 hr ([1]; dose 125 mg): 77.7 ng·h/mL
- Tmax (Median Value) ([1]; dose 125 mg): 2.0 h
- Cmax ([1]; dose 125 mg): 9.63 ng/mL
- AUC0-8 hr ([1]; dose 150 mg): 31.5 ng·h/mL
- AUC0-16 hr ([1]; dose 150 mg): 64.0 ng·h/mL
- Tmax (Median Value) ([1]; dose 150 mg): 2.0 h
- Cmax ([1]; dose 150 mg): 6.27 ng/mL
- AUC0-8 hr ([1]; dose 175 mg): 49.7 ng·h/mL
- AUC0-16 hr ([1]; dose 175 mg): 91.2 ng·h/mL
- Tmax (Median Value) ([1]; dose 175 mg): 2.0 h
- Cmax ([1]; dose 175 mg): 10.3 ng/mL
- AUC0-8 hr ([1]; dose 200 mg): 78.3 ng·h/mL
- AUC0-16 hr ([1]; dose 200 mg): 157 ng·h/mL
- Tmax (Median Value) ([1]; dose 200 mg): 2.0 h
- Cmax ([1]; dose 200 mg): 15.1 ng/mL
- oral bio-availability ([1]; estimated from PK of intravenously administered squalamine in prior clinical studies): less than 0.3%
- Median efficacious dose ([2]; Stage 2): 100 mg
- CSBM, Fixed dose (mean, SD) ([2]; Stage 2, Table 12, baseline 1.2 (0.90)): 3.8
- PAQ-SYM, Fixed dose (Mean, SD) ([2]; Stage 2, Table 12, baseline 1.3 (0.45)): 1.1
- PAQ-QOL, Fixed dose (Mean, SD) ([2]; Stage 2, Table 12, baseline 1.4 (0.49)): 1.2
- Rescue meds, Fixed dose (Mean, SD) ([2]; Stage 2, Table 12, baseline 1.8 (1.92)): 0.3
- SBM, Fixed dose (mean, SD) ([2]; Stage 2, Table 12, baseline 2.6 (1.45)): 4.5
- Consistency, Fixed dose (mean, SD) ([2]; Stage 2, Table 12, baseline 2.7 (1.20)): 4.1
- Ease, Fixed dose (Mean, SD) ([2]; Stage 2, Table 12, baseline 3.2 (0.73)): 3.7
- PAC-SYM, Fixed dose (mean, SD) ([2]; Stage 2, dosed patients n = 34, baseline 1.3 (0.45)): 1.1 (0.49)
- PAC-QOL total, Fixed dose (mean, SD) ([2]; Stage 2, dosed patients n = 34, baseline 1.4 (0.49)): 1.2 (0.59)
- CSBM, Fixed dose (mean, SD) ([2]; Stage 2, dosed patients n = 34, weekly average, baseline 1.2 (0.90)): 3.8 (2.40)
- Suppository use, Fixed dose (mean, SD) ([2]; Stage 2, dosed patients n = 34, weekly average, baseline 1.8 (1.92)): 0.3 (0.67)
- SBM, Fixed dose (mean, SD) ([2]; Stage 2, dosed patients n = 34, weekly average, baseline 2.6 (1.45)): 4.5 (2.21)
- Consistency, Fixed dose (mean, SD) ([2]; Stage 2, n = 34, Bristol stool scale 1-7, 1 = separate hard lumps, 7 = liquid consistency, baseline 2.7 (1.20)): 4.1 (2.13)
- Ease of passage, Fixed dose (mean, SD) ([2]; Stage 2, n = 34, Ease of evacuation scale, 1-manual disimpaction, 7 = incontinent, baseline 3.2 (0.73)): 3.7 (1.19)
- CSBM, Wash-out (Mean, SD) ([2]; Stage 2, wash-out period, baseline 1.2 (0.90)): 1.8 (1.19)
- PAQ-SYM, Wash-out (Mean, SD) ([2]; Stage 2, wash-out period, baseline 1.3 (0.45)): 1.1 (0.60)
- PAQ-QOL, Wash-out (Mean, SD) ([2]; Stage 2, wash-out period, baseline 1.4 (0.49)): 1.2 (0.63)
- Rescue meds, Wash-out (Mean, SD) ([2]; Stage 2, wash-out period, baseline 1.8 (1.92)): 1.0 (1.40)
- SBM, Wash-out (Mean, SD) ([2]; Stage 2, wash-out period, baseline 2.6 (1.45)): 3.2 (1.80)
- Consistency, Wash-out (Mean, SD) ([2]; Stage 2, wash-out period, baseline 2.7 (1.20)): 2.8 (1.39)
- Ease, Wash-out (Mean, SD) ([2]; Stage 2, wash-out period, baseline 3.2 (0.73)): 3.3 (0.81)
- response rate ([2]; 75 mg): 26%
- response rate ([2]; 250 mg): 85.3%
- Average CSBM/week ([2]; at fixed dose, baseline 1.2): 3.8
- Use of rescue medication ([2]; at fixed dose, baseline 1.8/week): 0.3 /week
- SBM ([2]; at fixed dose, baseline 2.6): 4.5
- CSBM frequency ([2]; beyond the treatment period (wash-out)): remained significantly above baseline value
- Subjective indices of wellbeing (PAC-QOL) ([2]; during treatment): improved
- constipation symptoms (PAC-SYM) ([2]; during treatment): improved
- CSBM/week ([2]; patients later randomized to Placebo (n = 9), Fixed dose period on drug, Baseline 1.6): 3.3
- dose for a bowel response, mean ([2]; patients with baseline constipation of <1 CSBM/week): 192 mg
- dose for a bowel response, mean ([2]; patients with ≥1 CSBM/week at baseline): 120 mg
- CSBM/week ([2]; randomized cohort, Treatment (n = 6), Fixed dose, Baseline 0.8): 3.2
- CSBM/week ([2]; randomized cohort, Treatment (n = 6), Randomized period): 2.4
- CSBM/week ([2]; randomized cohort, Treatment (n = 6), Washout): 0.9
- Consistency based on the Bristol stool scale, mean ([2]; treatment, from 2.7): 4.1
- ease of passage ([2]; treatment, from 3.2): 3.7
- patients responding ([2]; within 75 mg to 250 mg): 85%
